For the assay, the target named is T1, CCR2 (Homo sapiens, UniProt P41597).
T1 construct: THP-1 human monocytic leukemic cell line, which expresses endogenous CCR2; endogenous in cells; host or cells: THP-1 human monocytic leukemia cells, or human PBMC / human monocytes
T1 sequence (P41597 1-360 isoform P41597-2): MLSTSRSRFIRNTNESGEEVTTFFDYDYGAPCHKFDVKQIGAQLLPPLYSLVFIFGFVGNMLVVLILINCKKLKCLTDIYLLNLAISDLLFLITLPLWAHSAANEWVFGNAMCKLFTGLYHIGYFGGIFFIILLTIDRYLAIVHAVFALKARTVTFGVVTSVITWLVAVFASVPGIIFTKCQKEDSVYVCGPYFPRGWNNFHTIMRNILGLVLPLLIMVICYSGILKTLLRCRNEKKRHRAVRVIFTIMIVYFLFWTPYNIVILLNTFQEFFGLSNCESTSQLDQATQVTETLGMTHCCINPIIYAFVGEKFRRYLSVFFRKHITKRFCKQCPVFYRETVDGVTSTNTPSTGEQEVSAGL
Nature of the assay: CCR2 binding (125I-human MCP-1 competition on human PBMC / THP-1 cells). The following applies: n = 1 unless otherwise noted; tested in one of the assays described. How it is done:
Antagonism of MCP-1 Binding to Human PBMC
Millipore filter plates (#MABVN1250) are treated with 100 μl of binding buffer (0.5% bovine serum albumin, 20 mM HEPES buffer and 5 mM magnesium chloride in RPMI 1640 media) for thirty minutes at room temperature. To measure binding, 50 μl of binding buffer, with or without a known concentration compound, is combined with 50 μl of ^125-I labeled human MCP-1 (to give a final concentration of […] radioligand) and 50 μl of binding buffer containing 5×10^5 cells. Cells used for such binding assays can include human peripheral blood mononuclear cells isolated by Ficoll-Hypaque gradient centrifugation, human monocytes (Weiner et al., J. Immunol. Methods. 1980, 36, 89), or the THP-1 cell line which expresses the endogenous receptor. The mixture of compound, cells and radioligand are incubated at room temperature for thirty minutes. Plates are placed onto a vacuum manifold, vacuum applied, and the plates washed three times with binding buffer containing 0.5M NaCl. The plastic skirt is removed from the plate, the plate allowed to air dry, the wells punched out and counted. The percent inhibition of binding is calculated using the total counts obtained in the absence of any competing compound and the background binding determined by addition of 100 nM MCP-1 in place of the test compound.
THP-1 Monocytic Cell Binding: Whole Cell-Based Assay
The human CCR2 binding assay was also established with the THP-1 human monocytic leukemic cell line, which expresses endogenous CCR2, using ^125I-human MCP-1 as the tracer ligand. Radioligand competition binding assays were used for assessment of binding affinity of test compounds to the CCR2 receptor. For radioligand competition studies, 100 μl containing 2.5×10^5 THP-1 cells/well (in assay buffer containing 50 mM HEPES, pH7.4, 5mM MgCl2, 1 mM CaCl2 and 0.5% BSA) were added to 96-well assay plates containing the test compounds in 3-fold serial dilution, with final concentrations ranging from 5 μM to […]. Subsequently, 50 μl ^125I-MCP-1 radioligand at a final concentration of 0.2 nM in assay buffer were added to the reaction. After a 90 minute incubation period at room temperature, the binding reaction was terminated by harvesting on GF/B filter plates (PerkinElmer Cat. No. 6005177) followed by washing with ice-cold wash buffer (50 mM HEPES, pH 7.4, 0.1% BSA, 0.5 M NaCl) to remove unbound ligand. After washing, the plate was dried for 45 minutes at 60° C. followed by addition of 40 μl MicroScint 20 scintillation fluid, sealed and analyzed by the Packard TopCount reader. Non-specific binding was determined in the presence of 10 μM (a molar excess of […]) of an in-house CCR2 small molecule antagonist (CCR2 IC50=2 nM). Specific binding of ^125I-MCP-1 was calculated as the difference between total and non-specific binding. The competition data was plotted as a percentage inhibition of radioligand specific bound in the absence of test compound (percent of total signal). After correcting for non-specific binding, IC50 values were determined The IC50 is defined as the concentration of test compound required to reduce ^125I-MCP-1 specific binding by 50% and was calculated using the four parameter logistic equation to fit the normalized data.

The structures appear in SMILES notation. Where a name gives a salt, the structure may show the parent alone.

A word on the Ki: it is the equilibrium dissociation constant of an inhibitor or competing ligand from its target. Take `O=C(O)C1=Cc2ccccc2OC1c1cccc(Cl)c1` (racemic) [Example 1, 2-(3-chlorophenyl)-2H-chromene-3-carboxylic acid]: the Ki came out at 2000 nM.

For `O=C(O)C1=Cc2ccccc2OC1c1ccc(Cl)c(C(F)(F)F)c1` (racemic) [Example 2-1, 2-(4-chloro-3-(trifluoromethyl)phenyl)-2H-chromene-3-carboxylic acid], the Ki stood at 75 nM.

`O=C(O)C1=Cc2ccccc2OC1c1ccc(Cl)cc1` (racemic) [Example 2-2, 2-(4-chlorophenyl)-2H-chromene-3-carboxylic acid]: the affinity, expressed as Ki, was 950 nM.

For the molecule `COc1ccc(C2Oc3ccccc3C=C2C(=O)O)cc1` (racemic) [Example 2-3, 2-(4-methoxyphenyl)-2H-chromene-3-carboxylic acid], the Ki is 5300 nM.

In turn, `O=C(O)C1=Cc2ccccc2OC1c1cc(Cl)cc(Cl)c1` (racemic) [Example 2-4, 2-(3,5-dichlorophenyl)-2H-chromene-3-carboxylic acid] had an inhibition constant (Ki) of 4500 nM.

For `O=C(O)C1=Cc2ccccc2OC1c1ccc2c(c1)OCO2` (racemic) [Example 3, 2-(benzo[d][1,3]dioxol-5-yl)-2H-chromene-3-carboxylic acid], the inhibition constant Ki is 1100 nM.

In turn, `CC1(c2ccc(Cl)c(Cl)c2)Oc2ccccc2C=C1C(=O)O` (racemic) [Example 4-1, 2-(3,4-dichlorophenyl)-2-methyl-2H-chromene-3-carboxylic acid] gave an inhibition constant Ki of 220 nM.

The molecule `CCC1(c2ccc(Cl)c(Cl)c2)Oc2ccccc2C=C1C(=O)O` (racemic) [Example 4-2, 2-(3,4-dichlorophenyl)-2-ethyl-2H-chromene-3-carboxylic acid] yielded a Ki of 1200 nM.

As for `O=C(O)C1=Cc2ccccc2OC1c1ccc(Cl)c(Cl)c1` (racemic) [Example 5-1, 2-(3,4-dichlorophenyl)-2H-chromene-3-carboxylic acid], the affinity corresponds to a Ki of 140 nM.

Molecule `O=C(O)C1=Cc2ccccc2OC1c1ccc(Cl)c2ccccc12` (racemic) [Example 5-2, 2-(4-chloronaphthalen-1-yl)-2H-chromene-3-carboxylic acid] displayed a Ki of 1900 nM.

Consider `O=C(O)C1=Cc2ccccc2OC1c1ccncc1` (racemic) [Example 5-3, 2-(pyridin-4-yl)-2H-chromene-3-carboxylic acid trifluoroacetic acid salt], for which the Ki amounted to 1800 nM.

For the molecule `O=C(O)C1=Cc2ccccc2OC1c1ccc2ccccc2c1` (racemic) [Example 5-4, 2-(naphthalen-2-yl)-2H-chromene-3-carboxylic acid], the Ki was 1800 nM.

For the molecule `O=C(O)C1=Cc2ccccc2OC1c1cccc2ccccc12` (racemic) [Example 5-5, 2-(naphthalen-1-yl)-2H-chromene-3-carboxylic acid], the affinity, expressed as Ki, was 1700 nM.

As to `O=C(O)C1=Cc2ccccc2OC1c1cccc(F)c1` (racemic) [Example 5-6, 2-(3-fluorophenyl)-2H-chromene-3-carboxylic acid], affinity was put at a Ki of 5700 nM.

Consider `O=C(O)C1=Cc2ccccc2OC1c1ccc(Cl)c(F)c1` (racemic) [Example 5-7, 2-(3-fluoro-4-chlorophenyl)-2H-chromene-3-carboxylic acid], for which the Ki was 290 nM.

For the molecule `O=C(O)C1=Cc2ccccc2OC1c1ccc(F)c(Cl)c1` (racemic) [Example 5-8, 2-(3-chloro-4-fluorophenyl)-2H-chromene-3-carboxylic acid], the Ki turned out to be 560 nM.

On to `O=C(O)C1=Cc2ccccc2OC1c1cccc(C(F)(F)F)c1` (racemic) [Example 5-9, 2-(3-trifluoromethylphenyl)-2H-chromene-3-carboxylic acid], for which the affinity corresponds to a Ki of 1600 nM.

Molecule `O=C(O)C1=Cc2ccccc2OC1c1ccc(C(F)(F)F)cc1` (racemic) [Example 5-10, 2-(4-trifluoromethylphenyl)-2H-chromene-3-carboxylic acid] registered a Ki of 920 nM.

`O=C(O)C1=Cc2ccccc2OC1c1ccc(F)c(F)c1` (racemic) [Example 5-11, 2-(3,4-difluorophenyl)-2H-chromene-3-carboxylic acid] showed an inhibition constant (Ki) of 8600 nM.

Molecule `O=C(O)C1=Cc2ccccc2OC1c1cccc([N+](=O)[O-])c1` (racemic) [Example 5-12, 2-(3-nitrophenyl)-2H-chromene-3-carboxylic acid] gave an inhibitory constant (Ki) of 2800 nM.

Molecule `O=C(O)C1=Cc2ccccc2OC1c1ccc(Cl)c([N+](=O)[O-])c1` (racemic) [Example 5-13, 2-(3-nitro-4-chlorophenyl)-2H-chromene-3-carboxylic acid] registered a Ki of 230 nM.

Molecule `Cc1cc(C2Oc3ccccc3C=C2C(=O)O)ccc1Cl` (racemic) [Example 5-14, 2-(3-methyl-4-chlorophenyl)-2H-chromene-3-carboxylic acid] yielded a Ki of 160 nM.

As for `O=C(O)C1=Cc2ccccc2OC1c1ccc(Br)cc1` (racemic) [Example 5-15, 2-(4-bromophenyl)-2H-chromene-3-carboxylic acid], the Ki was 430 nM.

Turning to `O=C(O)C1=Cc2ccccc2OC1c1cccc(Br)c1` (racemic) [Example 5-16, 2-(3-bromophenyl)-2H-chromene-3-carboxylic acid], the affinity corresponds to a Ki of 1700 nM.

For `O=C(O)C1=Cc2ccccc2OC1c1ccc(Br)c(Br)c1` (racemic) [Example 5-17, 2-(3,4-dibromophenyl)-2H-chromene-3-carboxylic acid], the affinity, expressed as Ki, was 85 nM.

In the case of `O=C(O)C1=Cc2ccccc2OC1c1ccc(C(F)(F)F)c(F)c1` (racemic) [Example 5-18, 2-(3-fluoro-4-trifluoromethylphenyl)-2H-chromene-3-carboxylic acid], the Ki was 720 nM.

On to `Cc1ccc(C2Oc3ccccc3C=C2C(=O)O)cc1` (racemic) [Example 5-19, 2-(4-methylphenyl)-2H-chromene-3-carboxylic acid], for which the inhibition constant Ki turned out to be 4500 nM.

Consider `Cc1cccc(C2Oc3ccccc3C=C2C(=O)O)c1` (racemic) [Example 5-20, 2-(3-methylphenyl)-2H-chromene-3-carboxylic acid], for which the Ki worked out at 4200 nM.

For `O=C(O)C1=Cc2ccccc2OC1c1ccccn1` (racemic) [Example 5-21, 2-(pyridin-2-yl)-2H-chromene-3-carboxylic acid], affinity was put at a Ki of 1400 nM.

Molecule `O=C(O)C1=Cc2ccccc2OC1c1ccc2ccccc2n1` (racemic) [Example 5-22, 2-(quinolin-2-yl)-2H-chromene-3-carboxylic acid] registered a Ki of 2100 nM.

On to `O=C(O)C1=Cc2ccccc2OC1c1cnc2ccccc2c1` (racemic) [Example 5-23, 2-(quinolin-3-yl)-2H-chromene-3-carboxylic acid], for which the Ki was 4300 nM.

On to `O=C(O)C1=Cc2ccccc2OC1c1ccc(F)c(C(F)(F)F)c1` (racemic) [Example 5-24, 2-(3-trifluoromethyl-4-fluoro-phenyl)-2H-chromene-3-carboxylic acid], for which affinity was put at a Ki of 1100 nM.

`O=C(O)C1=Cc2ccccc2OC1c1cccc(C(F)(F)F)n1` (racemic) [Example 5-25, 2-(6-trifluoromethyl-pyridin-2-yl)-2H-chromene-3-carboxylic acid] came in with a Ki of 8300 nM.

In turn, `O=C(O)C1=Cc2ccccc2OC1c1cccc(Cl)c1Cl` (racemic) [Example 5-26, 2-(2,3-dichlorophenyl)-2H-chromene-3-carboxylic acid] returned a Ki of 2600 nM.

Regarding `COc1cc(C2Oc3ccccc3C=C2C(=O)O)ccc1Cl` (racemic) [Example 7-1, 2-(3-methoxy-4-chlorophenyl)-2H-chromene-3-carboxylic acid], the inhibition constant Ki came to 2900 nM.

The values above are taken from patent US8759390B2, “Chromene modulators of chemokine receptor activity” (Bristol-Myers Squibb Company, priority 2008, dated 2014).
